Reference: the NIST ThermoML archive (doi:10.1021/je600554h)

Conditions: 101.33 kPa, Liquid; for viscosity: Capillary tube (Ostwald / Ubbelohde) method

COC(C)(C)C [2-methoxy-2-methylpropane]
Conditions	mass density [kg/m3]	viscosity [mPa·s]
273.15 K	761.34	0.443
278.15 K	756.14	0.417
283.15 K	751.02	0.392
288.15 K	745.85	0.37
293.15 K	740.65	–
298.15 K	735.4	–
303.15 K	730.1	–
308.15 K	724.82	–
313.15 K	719.42	–
318.15 K	713.96	–

CCCCCCC [heptane]
Conditions	mass density [kg/m3]	viscosity [mPa·s]
273.15 K	700.75	0.526
278.15 K	696.59	0.495
283.15 K	692.42	0.465
288.15 K	688.22	0.438
293.15 K	684	0.415
298.15 K	679.75	0.392
303.15 K	675.48	0.372
308.15 K	671.19	0.354
313.15 K	666.86	0.336
318.15 K	662.5	–
323.15 K	658.11	–
328.15 K	653.68	–
333.15 K	649.22	–
338.15 K	644.72	–
343.15 K	640.17	–
348.15 K	635.58	–
353.15 K	630.41	–
358.15 K	626.34	–

CCCCCCCC [octane]
Conditions	mass density [kg/m3]	viscosity [mPa·s]
273.15 K	718.58	0.718
278.15 K	714.61	0.671
283.15 K	710.62	0.623
288.15 K	706.62	0.584
293.15 K	702.61	0.545
298.15 K	698.57	0.514
303.15 K	694.52	0.486
308.15 K	690.44	0.459
313.15 K	686.35	0.434
318.15 K	682.23	0.415
323.15 K	678.09	0.394
328.15 K	673.92	0.375
333.15 K	669.71	0.357
338.15 K	665.51	–
343.15 K	661.24	–
348.15 K	656.96	–
353.15 K	652.63	–
358.15 K	648.26	–
363.15 K	643.85	–
